Legend:
[1] = Analysis of active substance: preservative concentration before and after storage in VI-containing polymer solution; type: physicochemical; details: for active-substance concentration, 0 d, RT: before storage; for active-substance concentration, 14 d, 40° C.: storage 14 d at 40° C.; for active-substance concentration, 28 d, 40° C.: storage 28 d at 40° C.; for active-substance concentration, 60 d 40° C.: storage 60 d at 40° C.
In short: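 Preservatives (MIT, BIT, CMIT, OIT, DCOIT, iodopropynyl butyl carbamate) in aqueous vinylpyrrolidone–vinylimidazole copolymer solution quantified after dilution by isocratic RP18 chromatography with UV detection, using an acid-methanol eluent.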

[2] = Iodine color number according to DIN 6162:2014-09; type: physicochemical
[3] = Physical stability; visual assessment (color, turbidity, phase separation); type: physicochemical; design: key: ++: no discernible change with respect to color, turbidity or phase separation; +: marginal change in color number, somewhat increased Tyndall effect but no turbidity; 0: easily discernible increase in color number and moderate turbidity−no phase separation; −: turbidity and change in color number readily discernible by visual assessment; −−: strong color change with strong turbidity and incipient phase separation
In short: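 Samples were inspected visually for color, turbidity and phase separation and scored on a five-step scale. Scores run from ++ (no discernible change) to −− (strong color change, strong turbidity, incipient phase separation).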

[4] = tested on: Bacteria: Escherichia coli, Staphylococcus aureus, Pseudomonas aeruginosa, Pseudomonas putida, Burkholderia cepacia, Alcaligenes faecalis; assay: Preservation test with periodic inoculation, bacteria assessment; type: cell-based; details: for Start sample measurement, bact. assess., 4th inoculation: freshly formulated; for 60 d 40° C., bact. assess., 4th inoculation: sample stored 60 d at 40° C.
In short: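 Polymer samples (25 g) containing preservative were inoculated weekly, four times, with 10^9/ml bacterial or yeast mixtures (0.5 ml). Weekly streaks on agar were scored semiquantitatively (−− to ++) after 3 days at 25 °C, on fresh samples and on samples stored 60 days at 40 °C.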

[5] = Polymer P5 (HP56) with stabilizer

## Cn1sccc1=O [MIT, methyl-4-isothiazolin-3-one]
[1]; in Polymer P1
  active-substance concentration, 0 d, RT: 250 ppm
  active-substance concentration, 14 d, 40° C.: 217 ppm
  active-substance concentration, 28 d, 40° C.: 156 ppm
  active-substance concentration, 60 d 40° C.: 131 ppm
[1]; in Polymer P2
  active-substance concentration, 0 d, RT: 250 ppm
  active-substance concentration, 14 d, 40° C.: 181 ppm
  active-substance concentration, 28 d, 40° C.: 139 ppm
  active-substance concentration, 60 d 40° C.: 116 ppm
[1]; in Polymer P3
  active-substance concentration, 0 d, RT: 250 ppm
  active-substance concentration, 14 d, 40° C.: 171 ppm
  active-substance concentration, 28 d, 40° C.: 140 ppm
  active-substance concentration, 60 d 40° C.: 122 ppm
[1]; in Polymer P4
  active-substance concentration, 0 d, RT: 250 ppm
  active-substance concentration, 14 d, 40° C.: 164 ppm
  active-substance concentration, 28 d, 40° C.: 136 ppm
  active-substance concentration, 60 d 40° C.: 113 ppm
[1]; in Polymer P5 (HP56)
  active-substance concentration, 0 d, RT: 250 ppm
  active-substance concentration, 14 d, 40° C.: 151 ppm
  active-substance concentration, 28 d, 40° C.: 119 ppm
  active-substance concentration, 60 d 40° C.: 94 ppm
[1]; in Polymer P6
  active-substance concentration, 0 d, RT: 250 ppm
  active-substance concentration, 14 d, 40° C.: 143 ppm
  active-substance concentration, 28 d, 40° C.: 117 ppm
  active-substance concentration, 60 d 40° C.: 87 ppm
[1]; in Polymer P7
  active-substance concentration, 0 d, RT: 250 ppm
  active-substance concentration, 14 d, 40° C.: 149 ppm
  active-substance concentration, 28 d, 40° C.: 123 ppm
  active-substance concentration, 60 d 40° C.: 91 ppm
[1]; in Polymer P8
  active-substance concentration, 0 d, RT: 250 ppm
  active-substance concentration, 14 d, 40° C.: 151 ppm
  active-substance concentration, 28 d, 40° C.: 119 ppm
  active-substance concentration, 60 d 40° C.: 94 ppm
[1]; in Polymer P9
  active-substance concentration, 0 d, RT: 250 ppm
  active-substance concentration, 14 d, 40° C.: 131 ppm
  active-substance concentration, 28 d, 40° C.: 98 ppm
  active-substance concentration, 60 d 40° C.: 80 ppm
[2]; Polymer P1 with stabilizer
  Iodine color number, 60 d 40° C.: 5.5
  Iodine color number, start: 2.5
[2]; Polymer P2 with stabilizer
  Iodine color number, 60 d 40° C.: 5.8
  Iodine color number, start: 2.7
[2]; Polymer P3 with stabilizer
  Iodine color number, 60 d 40° C.: 8.5
  Iodine color number, start: 3.4
[2]; Polymer P4 with stabilizer
  Iodine color number, 60 d 40° C.: 8.7
  Iodine color number, start: 3.4
[2]; [5]
  Iodine color number, 60 d 40° C.: 8.7
  Iodine color number, start: 3.6
[2]; Polymer P6 with stabilizer
  Iodine color number, 60 d 40° C.: 8.5
  Iodine color number, start: 3.6
[2]; Polymer P7 with stabilizer
  Iodine color number, 60 d 40° C.: 8.5
  Iodine color number, start: 3.6
[2]; Polymer P8 with stabilizer
  Iodine color number, 60 d 40° C.: 8.6
  Iodine color number, start: 3.5
[2]; Polymer P9 with stabilizer
  Iodine color number, 60 d 40° C.: 12.7
  Iodine color number, start: 3.9
[3]; Polymer P1 with stabilizer
  Physical stability, 60 d 40° C.*: −
[3]; Polymer P2 with stabilizer
  Physical stability, 60 d 40° C.*: −
[3]; Polymer P3 with stabilizer
  Physical stability, 60 d 40° C.*: −
[3]; Polymer P4 with stabilizer
  Physical stability, 60 d 40° C.*: −
[3]; [5]
  Physical stability, 60 d 40° C.*: −
[3]; Polymer P6 with stabilizer
  Physical stability, 60 d 40° C.*: −
[3]; Polymer P7 with stabilizer
  Physical stability, 60 d 40° C.*: −
[3]; Polymer P8 with stabilizer
  Physical stability, 60 d 40° C.*: −
[3]; Polymer P9 with stabilizer
  Physical stability, 60 d 40° C.*: −
[4]; Polymer P1
  Start sample measurement, bact. assess., 4th inoculation: − (slight growth, max. 100 colonies)
  60 d 40° C., bact. assess., 4th inoculation: +
[4]; Polymer P2
  Start sample measurement, bact. assess., 4th inoculation: − (slight growth, max. 100 colonies)
  60 d 40° C., bact. assess., 4th inoculation: +
[4]; Polymer P3
  Start sample measurement, bact. assess., 4th inoculation: − (slight growth, max. 100 colonies)
  60 d 40° C., bact. assess., 4th inoculation: +
[4]; Polymer P4
  60 d 40° C., bact. assess., 4th inoculation: +
[4]; Polymer P5 (HP56)
  60 d 40° C., bact. assess., 4th inoculation: +
[4]; Polymer P6
  60 d 40° C., bact. assess., 4th inoculation: +
[4]; Polymer P7
  60 d 40° C., bact. assess., 4th inoculation: +
[4]; Polymer P8
  Start sample measurement, bact. assess., 4th inoculation: − (slight growth, max. 100 colonies)
  60 d 40° C., bact. assess., 4th inoculation: +
[4]; Polymer P9
  60 d 40° C., bact. assess., 4th inoculation: +
